Values after ≈ are worked out from the molar mass of the structure shown. “Also recorded” adds a separate entry of the source. Where two headings read alike, the source gives them in different places.
Legend:
Rab10 pThr73 = test: Rab10 Thr73 dephosphorylation in PBMC; type: cell-based, human; conditions: for EC50: Homo sapiens, PBMC
Experimental: PBMC cells were separated from human blood following existing protocol (dx.doi.org/10.17504/protocols.io.bnhxmb7n) and pelleted by centrifugation at 1000 g for 2 min. The supernatant was discarded and the PBMC pellet was resuspended in PBS containing 2% FBS for washing. The suspension was centrifuged at 1000 g for 2 min again and the PBMC pellet was resuspended in RPMI-1640 (Gibco) media supplemented with 10% FBS. The cells were then seeded into 6-well plates and treated with testing compounds at indicated concentrations and time period. After treatment, the cells were collected into 2-ml Eppendorf tube and centrifuged at 500 g for 2 min to pellet the cells, the supernatant was discarded, and the pellet was resuspended in 1 ml PBS and centrifuged at 500 g for 2 min again. The PBMC pellet was lysed with 60 μL of lysis buffer containing 50 mM Tris-HCl, pH 7.5, 1% (v/v) Triton X-100, 1 mM EGTA, 1 mM sodium orthovanadate, 50 mM NaF, 0.1% (v/v) 2-mercaptoethanol, 10 mM 2-glycerophosphate, 5 mM sodium pyrophosphate, 0.1 μg/ml mycrocystin-LR (Enzo Life Sciences), 270 mM sucrose, 0.5 mM DIFP (Sigma, Cat #D0879) in addition to Complete EDTA-free protease inhibitor cocktail (Sigma-Aldrich Cat #11836170001). DIFP is highly toxic and must be prepared in a fume hood to a stock solution of 0.5 M in isopropanol. The lysed cells were then centrifuged at 1500 g for 15 min at 0° C. The supernatants were collected for analysis by quantitative immunoblotting. For long term storage, the supernatant was flash frozen and stored at −80° C. Protein concentrations of cell lysates were determined using Pierce™ BCA Protein Assay Kit (ThermoFisher).
Cell lysates containing a quarter of a volume of 4× NuPAGE LDS sample buffer (NP0007) supplemented with 5% β-mercaptoethanol, were heated at 95° C. for 5 minutes. 15 to 20 μg of samples were loaded onto pre-cast 4-12% Bis-Tris midi 20W or 26W gels (Thermofisher Scientific®, Cat #WG1402BOX or WG1403BOX) and resolved at 130 V for 2 hours with NuPAGE MOPS SDS running buffer (Thermofisher Scientific® Cat #NP0001-02). Proteins were electrophoretically transferred onto a 0.45 μm nitrocellulose membrane (GE Healthcare, Amersham Protran® Supported 0.45 mm NC) at 90 V for 90 min on ice in transfer buffer (48 mM Tris base and 39 mM glycine supplemented with 20% methanol). The transferred membrane was blocked with 5% (w/v) skim milk powder dissolved in tris-buffered saline with tween (TBS-T) (50 mM Tris base, 150 mM sodium chloride (NaCl), 0.1% (v/v) Tween-20) at room temperature for 1 hour. Membranes were washed three times with TBS-T and were incubated in primary antibody overnight at 4° C. Prior to secondary antibody incubation, membranes were washed three times for 15 minutes with TBS-T. The membranes were incubated with secondary antibody for 1 hour at room temperature, protected from light. Thereafter, the membranes were washed with TBS-T three times with a 15-minute incubation for each wash, and protein bands were acquired via near-infrared fluorescent detection using the Odyssey CLx imaging system and quantified using Image Studio software. Graphs were generated using Graphpad Prism version 8 software.
Monoclonal rabbit LRRK2 Ser935 (Cat #UDD2) was purified by MRC PPU Reagents and Services at the University of Dundee and was used at a final concentration of 1 μg/ml. Total LRRK2 (C-terminus) was from Antibodies Inc./Neuromab (Cat #75-253) and was diluted 1:1000. […]

[1] = Stability in mouse liver microsome; type: in vitro ADME; conditions: liver microsomes, read-out: T1/2 in mouse liver microsome
[2] = Stability in mouse hepatocytes; type: in vitro ADME; conditions: read-out: T1/2 in mouse hepatocytes
Solubility = type: physicochemical
[3] = Stability in mouse plasma; type: in vitro ADME; conditions: read-out: T1/2 in mouse plasma
Caco-2 permeability = type: in vitro ADME; conditions: human, Caco-2
Caco-2 mono-cell layer = test: Caco-2 permeability; type: in vitro ADME

Structure (SMILES): CNc1nc(Nc2ccc(C(=O)N3CCN(C[C@H]4CC[C@H](CSC(C)(C)[C@H](NC(=O)C5(F)CC5)C(=O)N5C[C@@H](O)CC5C(=O)NCc5ccc(-c6scnc6C)cc5)CC4)CC3)cc2OC)ncc1Cl (stereo partly drawn) [Cis-XL01126, (2S,4S)-1-((R)-3-((((1r,4R)-4-((4-(4-((5-chloro-4-(methylamino)pyrimidin-2-yl)amino)-3-methoxybenzoyl)piperazin-1-yl)methyl)cyclohexyl)methyl)thio)-2-(1-fluorocyclopropane-1-carboxamido)-3-methylbutanoyl)-4-hydroxy-N-(4-(4-methylthiazol-5-yl)benzyl)pyrrolidine-2-carboxamide]
- EC50 (Rab10 pThr73; 4 h treatment): > 3 µM
- EC50 (Rab10 pThr73; 24 h treatment): 0.705 µM
- LRRK2 Ser935 and Rab10 Thr73 dephosphorylation in PBMC (in words) (Rab10 pThr73; time course at 300 nM): barely inhibits the phosphorylation; also recorded: induced little LRRK2 and Rab10 dephosphorylation

Structure (SMILES): CNc1nc(Nc2ccc(C(=O)N3CCN(C[C@H]4CC[C@H](CSC(C)(C)[C@H](NC(=O)C5(F)CC5)C(=O)N5C[C@H](O)CC5C(=O)NCc5ccc(-c6scnc6C)cc5)CC4)CC3)cc2OC)ncc1Cl (stereo partly drawn) [XL01126, (2S,4R)-1-((R)-3-((((1R,4R)-4-((4-(4-((5-chloro-4-(methylamino)pyrimidin-2-yl)amino)-3-methoxybenzoyl)piperazin-1-yl)methyl)cyclohexyl)methyl)thio)-2-(1-fluorocyclopropane-1-carboxamido)-3-methylbutanoyl)-4-hydroxy-N-(4-(4-methylthiazol-5-yl)benzyl)pyrrolidine-2-carboxamide]
- EC50 (Rab10 pThr73; 24 h treatment): 0.02 µM
- T1/2 of Rab10 dephosphorylation in PBMC (Rab10 pThr73; time course at 300 nM): 0.38 h
- half-life [1]: 3.65 min
- half-life [2]: 5.24 h
- solubility (Solubility; FeSSIF (fed state simulated intestinal fluid), fessif, Fed State Simulated Intestinal Fluid pH 5.8, read-out: Solubility in FeSSIF (pH 5.8)): 26.1 µM (≈ 26.6 µg/mL)
- solubility (Solubility; aqueous buffer, PBS pH 7.4, read-out: Solubility in PBS (pH 7.4)): 0.55 µM (≈ 0.561 µg/mL)
- half-life [3]: 1.8 h
- Papp A→B (Caco-2 permeability; A − B): < 7.4 nm/s
- Papp B→A (Caco-2 permeability; B − A): < 14.3 nm/s
- penetration of Caco-2 mono-cell layer (in words) (Caco-2 mono-cell layer): can penetrant Caco-2 mono-cell layer; also recorded: can penetrate Caco-2 mono-cell layer

Source: US20260001875A1, “AMINOPYRIMIDINYL DERIVATIVES FOR THE TREATMENT OF PARKINSON'S DISEASE” (UNIVERSITY OF DUNDEE, priority 2022, published 2026)
